“Also recorded” adds a separate entry of the source.
Columns and labels:
[1] = test system: skeletal muscle glucose transport system; details: soleus and epitrochlearis muscles of lean and obese Zucker rats; dose-dependent; cited from earlier work
[2] = Wistar rats, 20 mg/kg orally daily for 5 days, cited from earlier work
[3] = lean and obese Zucker rats; 200 or 500 mg/kg by gavage; cited from earlier work
isolated mouse islets = details: effect faded at normal to low glucose; cited from earlier work
[4] = type 2 diabetic subjects, cited from earlier work
[5] = test system: muscle glycogen (vastus lateralis); test: Muscle glycogen resynthesis after glycogen depleting exercise, double blinded crossover, vastus lateralis biopsies; format: in vivo, human
Protocol: In this example, the effect is examined of a 500 mg steviol glycosides supplementation together with post-exercise oral carbohydrate (1.5 g/kg/h), versus an isocaloric carbohydrate supplementation on muscle glycogen resynthesis, following glycogen depletive exercise. Fifteen trained male cyclists performed two cycling sessions of 120 min at 75-85% Vo2-max, with the post exercise supplementation of stevioside organized in a double blinded crossover study design. Over the course of a 4 h of recovery period, muscle biopsies were obtained from the vastus lateralis immediately and 240 minutes after exercise, to measure post-recovery glycogen concentration and rate of post-exercise glycogen synthesis. In order to measure plasma glucose, insulin and glucagon, blood samples were drawn before and immediately after exercise, and at every half hour during the four hour recovery period. Results A significant increase in total glycogen concentration was seen following the 4 hour of recovery in both trials (p<0.005). […] Plasma glucose and glucagon levels also show a reduction when stevioside was supplied.
In the present study, a double blinded crossover protocol was used to examine the effect of post exercise carbohydrate ingestion supplemented with or without stevioside supplementation on muscle glycogen resynthesis. The double blinded crossover protocol was chosen to ensure a satisfactory statistical power with the relative few subjects that were included in this study. After completing a preliminary anthropometric assessment incremental and VO2-max test, each subject completed two randomized experimental trials; separate by at least seven days.
After the preliminary testing, each subject underwent two experimental trials, with the experimental supplementation randomized using a randomizing software (Research randomizer) and blinded to both subject and researchers by supplementing the stevioside concealed in capsules. […] The two experimental trials were separated by at least seven days. The subjects were instructed to refrain from any intense exercise 24 hour before both the preliminary test and the two experimental trials. […]
As illustrated the table below, the subjects arrived fasting at 8:00 o'clock a.m. in the lab and completed a glycogen depletion ride consisting of 120 minutes cycling at 75%-80% of their maximal heart rate reserve, followed by a series of five 30 seconds sprint interval at an all-out intensity interspaced with a rest period of 60 seconds. Workload and target heart rate zone was calculated for the subjects, based on the results presented in table 1, performance characteristics of the subjects. […]

[6] = type II diabetic patients, cited from earlier work
[7] = Plasma glucose, insulin and glucagon during the four hour recovery period; format: in vivo, human
Protocol: Before the subjects started the depletion ride, blood was drawn from a medial antecubital vein to establish baseline values for plasma glucose, plasma insulin and plasma glucagon concentrations. After completion of the depletion ride and 240 minutes later, a muscle biopsy was obtained from the vastus lateralis muscle by the use of a percutaneous needle biopsy technique, using the protocol described by Bergström (Bergström 1962). The biopsy sampling was performed by a trained physician with extensive experience in sterile technique. An area of anterolateral side of one thigh was disinfected with chlorhexidine, and local anesthetized with lidocaine (10 mg/ml) in the skin, subcutaneous tissue and muscle fascia. After the area was covered with a sterile hole-piece, a small incision in the skin and fascia of the leg was made with a scalpel and a tissue sample was taken with a Bergström biopsy needle with the aid of suction. The biopsy procedure was managed by Mikkel Overgaard, and assisted by Søren Lavrsen. Approx. 100 mg of muscle tissue was taken from the vastus lateralis muscle. The muscle tissue samples were weighted and immediately placed in liquid nitrogen, and then transferred to a freezer (−80° C.) for storage until analysis for determination of glycogen concentration would be made. At the same time a polyethylene catheter was placed subcutaneous into a medial antecubital vein from which blood samples were collected. 10 ml of blood were drawn for the analysis of plasma glucose and insulin, and 7.5 ml of blood was drawn for the analysis of plasma glucagon. After the first sample at 0 minutes, blood was drawn at 30, 60, 90, 120, 150, 180, 210 and 240 minutes after the subject has finished the glycogen depletion protocol. Blood samples were centrifuged before 2 ml of the plasma was pipetted into standard analyzing tubes and stored at −80° C. for later analysis.
Immediately after the muscle biopsy procedure and initial blood sampling, the subjects ingested either 500 mg of steviol glucosides, or placebo (500 mg of corn starch) Supplementation, together with 1.5 gr/body weight of liquid maltodextrine solution (Pure Power, Harre Denmark). The sequence of stevioside and placebo supplementation was randomized in a balanced order. At 60, 120 and 180 minutes after termination of the depletion ride, the subjects received another carbohydrate rich feeding (1.5 gr/body weight/hour of Carbohydrates/kg body weight/hour), in accordance with the guidelines recommended by (Ivy et al. 1988).
Blood samples were collected for the measurements for measurement of the plasma glucose, insulin and glucagon values before initiation of the glycogen depletion protocol and at 0, 30, 60, 90, 120, 150, 180, 210 and 240 minutes after the subject has finished the glycogen depletion protocol.
10 ml of blood were drawn for the analysis of plasma glucose and insulin, and 7.5 ml of blood was drawn for the analysis of plasma glucagon. All blood was drawn from the antecubital vein. For glucose and insulin the drawn blood was collected in lilthium heparinized tubes (Venosafe—plasma VF-109SHL, Terumo Europe N.V., Leuven, Belgium). For glucagon the drawn blood was collected in EDTA treated tubes (Venosafe). With all samples the tubes were turned over 10 times, to avoid coagulation, before they were centrifuged at 1500 G for 10 minutes at 5° C. using a Sigma 3-18 centrifuge (Sigma Laborzentrifugen GmbH, Osterode am Harz, Germany). 2 ml of the plasma was pipetted into standard analyzing tubes and stored at −80° C. for later analysis. After all testing sessions were finished; all blood samples were packed, according to regulations, in an icebox at […], and transported to the Diabetes laboratory 4, at Aarhus University Hospital, Tage-Hansens Gade (Aarhus, Denmark) for analysis of plasma glucose, insulin and glucagon concentration. […]

In the case of `C=C1C[C@@]23CC[C@H]4[C@@](C)(CCC[C@@]4(C)C(=O)O[C@@H]4O[C@H](CO)[C@@H](O)[C@H](O)[C@H]4O)[C@@H]2CC[C@]1(O[C@@H]1O[C@H](CO)[C@@H](O)[C@H](O)[C@H]1O[C@@H]1O[C@H](CO)[C@@H](O)[C@H](O)[C@H]1O)C3` [stevioside, Stevioside], the “insulin action on skeletal muscle glucose transport system” value [1] is given as “improves the insulin action”, the “glucose levels before the glucose test compared to control group” value [2] is given as “no significant decrease” and the “glucose levels under increased loading during the glucose test” value ([2]; stevioside alone) is given as “conferred beneficial effects”. The “fasting plasma glucose and insulin” value [3] was “did not significantly affect”, the insulin release (isolated mouse islets) was “glucose-dependent insulin release” and the “suppression of postprandial blood glucose level” value ([4]; 1 g stevioside with standard meal vs maize starch) was 18%. The circulating insulin levels ([4]; 1 g stevioside with standard meal) was “tended to be increased”, the “increase of glycogen resynthesis rate compared to placebo” value ([5]; 4 h recovery, 500 mg orally with carbohydrate) was 35% and the “glycogen resynthesis rate (rate of glycogen repletion)” value ([5]; 4 h recovery, 500 mg steviol glycosides orally with carbohydrate 1.5 g/kg/h, mean±SE, placebo 27.96±2.6) was 37.84 ± 3.72 mmol/kg/h. For the same compound, the muscle glycogen concentration ([5]; 240 minutes after completion of the depletion protocol, placebo 246.4±20) was 281.5±29 mmol/kg/dw, the “effect on post-exercise muscle glycogen resynthesis” value ([5]; four hour recovery period, in addition to carbohydrate, p<0.022) was “increase muscle glycogen resynthesis significantly” and the “postprandial glucagon like peptide-1 level” value ([6]; 1 g orally) was “significantly reduced”. The insulin response ([6]; 1 g orally, not statistically significant) was “tended to stimulate insulin response”, the “reduction of post prandial blood glucose response compared to placebo” value ([6]; 1 g stevioside orally with standard meal) was 18.5% and the “time of second plasma insulin peak concentration” value ([7]; after third CHO feeding at 120 minutes, placebo at 150) was 180 min. The “difference in plasma insulin concentration between stevioside and control (iAUC)” value ([7]; any times during the recovery period, p=0.95) was “no significant difference”, the “plasma glucagon concentration (area under the curve) compared to placebo” value ([7]; four hour recovery period) was “reduction” and the “plasma glucagon concentration (area under the curve) compared to placebo” value ([7]; four hour recovery period, listed as stevia) was “clearly reduced”. The “plasma glucose response (iAUC) compared to placebo” value ([7]; four hour recovery period, not statistically significant) was “reduction; also recorded: lower” and the “plasma insulin, mean area under the curve” value ([7]; four hour recovery period, placebo 55790±12660) was 56720±11950 ng/ml*4 hours.
